Source: BindingDB's records for patent US10849881 (Hoffmann-La Roche, 2020)

Target: Autotaxin (Homo sapiens, UniProt Q13822)
Experiment: Enzyme Inhibition Assay
Protocol: ATX inhibition was measured by a fluorescence quenching assay using a specifically labeled substrate analogue (MR121 substrate). To obtain this MR121 substrate, BOC and TBS protected 6-amino-hexanoic acid (R)-3-({2-[3-(2-{2-[2-(2-amino-ethoxy)-ethoxy]-ethoxy}-ethoxy)-propionylamino]-ethoxy}-hydroxy-phosphoryloxy)-2-hydroxy-propyl ester (Ferguson et al., Org Lett 2006, 8 (10), 2023) was labeled with MR121 fluorophore (CAS 185308-24-1, 1-(3-carboxypropyl)-11-ethyl-1,2,3,4,8,9,10,11-octahydro-dipyrido[3,2-b:2′,3′-i]phenoxazin-13-ium) on the free amine of the ethanolamine side and then, after deprotection, subsequently with tryptophan on the side of the aminohexanoic acid.Assay working solutions were made as follows:Assay buffer (50 mM Tris-HCl, 140 mM NaCl, 5 mM KCl, 1 mM CaCl2, 1 mM MgCl2, 0.01% Triton-X-100, pH 8.0;ATX solution: ATX (human His-tagged) stock solution (1.08 mg/mL in 20 mM bicine, pH 8.5, 0.15 M NaCl, 10% glycerol, 0.3% CHAPS, 0.02% NaN3), diluted to 1.4-2.5× final concentration in assay buffer;MR121 substrate solution: MR121 substrate stock solution (800 μM MR121 substrate in DMSO), diluted to 2-5× final concentration in assay buffer.

IC50: 17 nM
SMILES: O=C(c1ccc2cc(Br)ccc2c1)N1C[C@@H]2[C@H](C1)[C@H]1CN(C(=O)c3ccc4[nH]nnc4c3)C[C@@H]21 [US10849881, Example 1.004]
